Source: patent publication US6921770B2 (priority 2000, dated 2005)

system: rice blast fungi; format: in vivo, Pyricularia grisea; conditions: not given

Point of comparison: `Cc1ccc(N=c2scc(CC(=O)Nc3ccc(C)c(Cl)c3)n2C)c(C)c1.Cl` [Compound 227, 2-(2,4-dimethylphenylimino)-3-methyl-4-[N-(3-chloro-4-methylphenyl)carbamoylmethyl]-4-thiazoline hydrochloride], “Inhibiting Ratio (%) (at 250 ppm)” value 97%. Against it:
- Cc1ccc(NC(=O)Cc2csc(=Nc3ccc(Br)cc3)n2C)cc1.Cl [Compound 162, 2-(4-bromophenylimino)-3-methyl-4-[N-(4-methylphenyl)carbamoylmethyl]-1,3-thiazol-4-ine hydrochloride] — lower, 89%
- Cn1c(CC(=O)Nc2ccccc2)csc1=Nc1ccc(F)cc1F [Compound 331, 2-(2,4-difluorophenylimino)-3-methyl-4-[N-phenylcarbamoylmethyl]-1,3-thiazol-4-ine] — lower, 96%
- Cc1ccc(N=c2scc(CC(=O)Nc3ccc(Cl)cc3)n2C)c(C)c1.Cl [Compound 154, 2-(2,4-dimethylphenylimino)-3-methyl-4-(N-(4-chlorophenyl)carbamoylmethyl)-1,3-thiazol-4-ine hydrochloride] — lower, 93%
- Br.Cn1c(CC(=O)Nc2ccccc2)csc1=Nc1ccc(Oc2ccccc2)cc1 [Compound 3, 2-(4-phenoxyphenylimino)-3-methyl-4-(N-phenylcarbamoylmethyl)-1,3-thiazol-4-ine hydrobromide] — lower, 95%
- CCCCc1ccc(N=c2scc(CC(=O)Nc3ccc(C#N)cc3)n2C)cc1.Cl [Compound 221, 2-[4-(n-butyl)phenylimino]-3-methyl-4-[N-(4-cyanophenyl)carbamoylmethyl]-4-thiazoline hydrochloride] — lower, 87%
- Br.CCc1ccc(N=c2scc(CC(=O)Nc3ccc(Cl)cc3)n2C)cc1 [Compound 304, 2-(4-ethylphenylimino)-3-methyl-4-[N-(4-chlorophenyl)carbamoylmethyl]-1,3-thiazol-4-ine hydrobromide] — higher, 100%
- Br.Cc1ccc(F)c(N=c2scc(CC(=O)Nc3ccccc3)n2C)c1 [Compound 44, 2-(2-fluoro-5-methylphenylimino)-3-methyl-4-(N-phenylcarbamoylmethyl)-1,3-thiazol-4-ine hydrobromide] — lower, 95%
- Br.Cn1c(CC(=O)Nc2cccc(C(F)(F)F)c2)csc1=Nc1cccc(C(F)(F)F)c1 [Compound 7, 2-(3-trifluoromethylphenylimino)-3-methyl-4-[N-(3-trifluoromethylphenyl)carbamoylmethyl]-1,3-thiazol-4-ine hydrobromide] — the same, 97%
- Br.Cc1ccc(Cl)cc1N=c1scc(CC(=O)Nc2ccccc2)n1C [Compound 24, 2-(5-chloro-2-methylphenylimino)-3-methyl-4-(N-phenylcarbamoymethyl)-1,3-thiazol-4-ine hydrobromide] — the same, 97%
- Br.Cn1c(CC(=O)Nc2cccc(Cl)c2)csc1=Nc1ccc(F)cc1F [Compound 68, 2-(2,4-difluorophenylimino)-3-methyl-4-[N-(3-chlorophenyl)carbamoylmethyl]-1,3-thiazol-4-ine hydrobromide] — lower, 95%
- Br.COc1ccc(NC(=O)Cc2csc(=Nc3ccc(C(C)(C)C)cc3)n2C)cc1 [Compound 326, 2-(4-butyl(t-)phenylimino)-3-methyl-4-[N-(4-methoxyphenyl)carbamoylmethyl]-1,3-thiazol-4-ine hydrobromide] — the same, 97%
- Br.COc1ccc(NC(=O)Cc2csc(=Nc3ccccc3)n2C)cc1 [Compound 306, 2-phenylimino-3-methyl-4-[N-(4-methoxyphenyl)carbamoylmethyl]-1,3-thiazol-4-ine hydrobromide] — lower, 93%
- Br.Cc1ccc(NC(=O)Cc2csc(=Nc3ccc(Cl)cc3Cl)n2C)cc1 [Compound 49, 2-(2,4-dichlorophenylimino)-3-methyl-4-[N-(4-methylphenyl)carbamoylmethyl]-1,3-thiazol-4-ine hydrobromide] — higher, 100%
- Br.Cn1c(CC(=O)Nc2ccccc2)csc1=Nc1ccc(OC(F)(F)F)cc1 [Compound 39, 2-(4-trifluoromethoxyphenylimino)-3-methyl-4-(N-phenylcarbamoylmethyl)-1,3-thiazol-4-ine hydrobromide] — higher, 99%
- Cc1ccc(N=c2scc(CC(=O)Nc3ccc(Br)cc3)n2C2CC2)c(C)c1.Cl [Compound 263, 2-(2,4-dimethylphenylimino)-3-cyclopropyl-4-[N-(4-bromophenyl)carbamoylmethyl]-1,3-thiazol-4-ine hydrochloride] — lower, 96%
- Br.Cc1cc(Br)ccc1N=c1scc(CC(=O)Nc2ccccc2)n1C [Compound 26, 2-(4-bromo-2-methylphenylimino)-3-methyl-4-(N-phenylcarbamoylmethyl)-1,3-thiazol-4-ine hydrobromide] — higher, 100%
- Cc1ccc(NC(=O)Cc2csc(=Nc3cccc(F)c3)n2C)cc1Cl.Cl [Compound 236, 2-(3-fluorophenylimino)-3-methyl-4-[N-(3-chloro-4-methylphenyl)carbamoylmethyl]-1,3-thiazol-4-ine hydrochloride] — the same, 97%
- Br.Cc1ccc(NC(=O)Cc2csc(=Nc3ccc(Br)cc3C)n2C)cc1 [Compound 33, 2-(4-bromo-2-methylphenylimino)-3-methyl-4-[N-(4-methylphenyl)carbamoylmethyl]-1,3-thiazol-4-ine hydrobromide] — higher, 100%
- Cl.Cn1c(CC(=O)Nc2ccc(Br)cc2)csc1=Nc1ccccc1F [Compound 148, 2-(2-fluorophenylimino)-3-methyl-4-[N-(4-bromophenyl)carbamoylmethyl]-1,3-thiazol-4-ine hydrochloride] — lower, 95%
- Cl.Cn1c(CC(=O)Nc2ccc(Br)cc2)csc1=Nc1cccc(Br)c1 [Compound 137, 2-(3-bromophenylimino)-3-methyl-4-[N-(4-bromophenyl)carbamoylmethyl]-1,3-thiazol-4-ine hydrochloride] — the same, 97%
- Br.COc1ccccc1N=c1scc(CC(=O)Nc2ccc(C)cc2)n1C [Compound 28, 2-(2-methoxyphenylimino)-3-methyl-4-[N-(4-methylphenyl)carbamoylmethyl]-1,3-thiazol-4-ine hydrobromide] — higher, 100%
- Br.Cc1ccc(NC(=O)Cc2csc(=Nc3cccc(F)c3)n2C)cc1 [Compound 48, 2-(3-fluorophenylimino)-3-methyl-4-[N-(4-methylphenyl)carbamoylmethyl]-1,3-thiazol-4-ine hydrobromide] — higher, 100%
- Br.Cc1ccc(NC(=O)Cc2csc(=Nc3ccc([N+](=O)[O-])cc3F)n2C)cc1 [Compound 55, 2-(2-fluoro-4-nitrophenylimino)-3-methyl-4-[N-(4-methylphenyl)carbamoylmethyl]-1,3-thiazol-4-ine hydrobromide] — lower, 96%
- Br.Cc1ccc(NC(=O)Cc2csc(=Nc3ccc(C(F)(F)F)cc3)n2C)cc1 [Compound 14, 2-(4-trifluoromethylphenylimino)-3-methyl-4-[N-(4-methylphenyl)carbamoylmethyl]-1,3-thiazol-4-ine hydrobromide] — higher, 99%
- Cn1c(CC(=O)Nc2ccc(Cl)cc2)csc1=Nc1ccc(C#N)cc1 [Compound 329, 2-(4-cyanophenylimino)-3-methyl-4-[N-(4-chlorophenyl)carbamoylmethyl]-1,3-thiazol-4-ine] — higher, 100%
- Cl.Cn1c(CC(=O)Nc2ccc(OC(F)(F)F)cc2)csc1=Nc1ccc(OC(F)(F)F)cc1 [Compound 108, 2-(4-trifluoromethoxyphenylimino)-3-methyl-4-[N-(4-trifluoromethoxyphenyl)carbamoylmethyl]-1,3-thiazol-4-ine hydrochloride] — lower, 91%
- Cc1ccc(NC(=O)Cc2csc(=Nc3ccc(F)cc3F)n2C)cc1Cl.Cl [Compound 232, 2-(2.4-difluorophenylimino)-3-methyl-4-[N-(3-chloro-4-methylphenyl)carbamoylmethyl]-4-thiazoline hydrochloride] — lower, 92%
- Cl.Cn1c(CC(=O)Nc2ccc(Br)cc2)csc1=Nc1ccc(F)cc1 [Compound 136, 2-(4-fluorophenylimino)-3-methyl-4-[N-(4-bromophenyl)carbamoylmethyl]-1,3-thiazol-4-ine hydrochloride] — the same, 97%
- Br.Cn1c(CC(=O)Nc2cccc(Cl)c2)csc1=Nc1cccc([N+](=O)[O-])c1 [Compound 18, 2-(3-nitrophenylimino)-3-methyl-4-[N-(3-chlorophenyl)carbamoylmethyl]-1,3-thiazol-4-ine hydrobromide] — lower, 93%
- Cl.Cn1c(CC(=O)Nc2ccc(Br)cc2)csc1=Nc1cc(Cl)cc(Cl)c1 [Compound 138, 2-(3,5-dichlorophenylimino)-3-methyl-4-[N-(4-bromophenyl)carbamoylmethyl]-1,3-thiazol-4-ine hydrochloride] — lower, 95%
- COc1ccc(NC(=O)Cc2csc(=Nc3cc(C)ccc3OC)n2C)cc1.Cl [Compound 198, 2-(2-methoxy-5-methylphenylimino)-3-methyl-4-[N-(4-methoxyphenyl)carbamoylmethyl]-1,3-thiazol-4-ine hydrochloride] — lower, 95%
- Cl.Cn1c(CC(=O)Nc2ccc(Cl)cc2)csc1=Nc1cccc(Br)c1 [Compound 156, 2-(3-bromophenylimino)-3-methyl-4-[N-(4-chlorophenyl)carbamoylmethyl]-1,3-thiazol-4-ine hydrochloride] — lower, 96%
- Br.CC(C)=CCOc1cc(N=c2scc(CC(=O)Nc3ccccc3)n2C)c(F)cc1Cl [Compound 70, 2-(4-chloro-2-fluoro-5-(3,3,-dimethylallyloxy)phenylimino)-3-methyl-4-(N-phenylcarbamoylmethyl)-1,3-thiazol-4-ine hydrobromide] — lower, 96%

same assay, conditions: hydrobromide

In the case of `Br.Cc1cc(Cl)ccc1N=c1scc(CC(=O)Nc2cccc(Cl)c2)n1C` [Compound 61, 2-(4-chloro-2-methylphenylimino)-3-methyl-4-[N-(3-chlorophenyl)carbamoylmethyl]-1,3-thiazol-4-ine hydrobromide], the “Inhibiting Ratio (%) (at 250 ppm)” value was 100%.
